Measurements taken from patent US20230077362A1 (CORTEVA AGRISCIENCE LLC, priority 2019, published 2023).
Read-outs that look alike come from different tables or passages of the source.

What was measured:
Assay type in all cases: in vivo
[1] = test system: Cabbage Looper (Trichoplusia ni) ("CL"), second instar larvae; assay: Bioassay on cabbage looper (CL), 128-well diet tray assay; conditions: Trichoplusia ni
In short: (§1)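 Mortality (%) is scored well by well after five to seven days at 25° C. on a 14:10 light:dark regime. The value given is the mean of eight wells.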

[2] = test system: Beet Armyworm (Spodoptera exigua) ("BAW"), second instar larvae; assay: Bioassay on beet armyworm (BAW), 128-well diet tray assay; conditions: Spodoptera exigua
In short: as §1

[3] = test system: Green Peach Aphid ("GPA") (Myzus persicae), wingless adult and nymph stages; assay: Bioassay on green peach aphid (GPA), foliar spray on infested cabbage seedlings; conditions: Myzus persicae, foliar, 72 h
Protocol: Certain molecules disclosed in this document were tested against GPA using procedures described in the following example. In the reporting of the results, the “GPA Rating Table” was used (See Table Section).
Cabbage seedlings grown in 3-inch pots, with 2-3 small (3-5 cm) true leaves, were used as test substrate. The seedlings were infested with 20-50 GPA (wingless adult and nymph stages) one day prior to chemical application. Four pots with individual seedlings were used for each treatment. Test compounds (2 mg) were dissolved in 2 mL of acetone/methanol (1:1) solvent, forming stock solutions of 1000 ppm test compound. […] A hand-held aspirator-type sprayer was used for spraying a solution to both sides of […] leaves until runoff. Reference plants (solvent check) were sprayed with the diluent only containing 20% by volume of acetone/methanol (1:1) solvent. Treated plants were held in a holding room for three days at approximately 25° C. and ambient relative humidity (RH) prior to grading. Evaluation was conducted by counting the number of live aphids per plant under a microscope.
Corrected % Control=100*(X−Y)/X • where • X=No. of live aphids on solvent check plants and • Y=No. of live aphids on treated plants
The results are indicated in the table entitled “Table ABC: Biological Results” (See Table Section).

[4] = read-out: CL (Biological Results, rating)
[5] = read-out: BAW (Biological Results, rating)
[6] = read-out: GPA (Biological Results, rating)

Compound	pest or weed control at 50 µg/cm2 [1, 4]	pest or weed control at 50 µg/cm2 [2, 5]	pest or weed control at 200 µg/mL [3, 6]	pest or weed control at 50 µg/cm2 ([1]; read-out: CL rating)	pest or weed control at 50 µg/cm2 ([2]; read-out: BAW rating)	pest or weed control at 200 µg/mL ([3]; read-out: GPA rating)
COc1ccc(C(C)C)c(N2C(=O)CS/C2=N\C(=O)Nc2ccc(-c3ncn(-c4ccc(OC(F)(F)F)cc4)n3)cc2F)c1 [Compound J312]	50 to 100%	50 to 100%	0 to 80%			
CCNc1ccc(C(C)C)c(N2C(=O)CS/C2=N\C(=O)Nc2ccc(-c3ncn(-c4ccc(OC(F)(F)F)cc4)n3)cc2C)c1 [Compound J127, (Z)-1-(3-(5-(Ethylamino)-2-isopropylphenyl)-4-oxothiazolidin-2-ylidene)-3-(2-methyl-4-(1-(4-(trifluoromethoxy)phenyl)-1H-1,2,4-triazol-3-yl)phenyl)urea]	50 to 100%	50 to 100%	0 to 80%			
CC(=O)c1ccc(C(C)C)c(N2C(=O)CS/C2=N\C(=O)Nc2ccc(-c3ncn(-c4ccc(OC(F)(F)F)cc4)n3)cc2F)c1 [Compound J77, (Z)-1-(3-(5-Acetyl-2-isopropylphenyl)-4-oxothiazolidin-2-ylidene)-3-(2-fluoro-4-(1-(4-(trifluoromethoxy)phenyl)-1H-1,2,4-triazol-3-yl)phenyl)urea]	50 to 100%	50 to 100%	0 to 80%			
COc1ccc(C(C)C)c(N2C(=O)CS/C2=N\C(=O)Nc2ccc(-c3ncn(-c4cccc(OC(F)(F)F)c4)n3)cc2)c1 [Compound J328, (Z)-1-(3-(2-Isopropyl-5-methoxyphenyl)-4-oxothiazolidin-2-ylidene)-3-(4-(1-(3-(trifluoromethoxy)phenyl)-1H-1,2,4-triazol-3-yl)phenyl)urea]	50 to 100%	50 to 100%	0 to 80%			
COc1ccc(C(C)C)c(N2C(=O)CS/C2=N\C(=O)Nc2ccc(-c3ncn(-c4cccc(C(F)(F)F)c4)n3)cc2C)c1 [Compound J132, (Z)-1-(3-(2-Isopropyl-5-methoxyphenyl)-4-oxothiazolidin-2-ylidene)-3-(2-methyl-4-(1-(3-(trifluoromethyl)phenyl)-1H-1,2,4-triazol-3-yl)phenyl)urea]	50 to 100%	50 to 100%	0 to 80%			
Cc1ccc(COCC(F)(F)F)c(N2C(=O)CS/C2=N\C(=O)Nc2ccc(-c3ncn(-c4ccc(C(F)F)cc4)n3)cc2C)c1 [Compound J684, (Z)-1-(4-(1-(4-(Difluoromethyl)phenyl)-1H-1,2,4-triazol-3-yl)-2-methylphenyl)-3-(3-(5-methyl-2-((2,2,2-trifluoroethoxy)methyl)phenyl)-4-oxothiazolidin-2-ylidene)urea]				50 to 100%	50 to 100%	0 to 80%
Cc1ccc(-n2cnc(-c3ccc(NC(=O)/N=C4\SCC(=O)N4c4cc(C)ccc4C(C)C)c(F)c3)n2)cc1 [Compound J148, (Z)-1-(2-Fluoro-4-(1-(p-tolyl)-1H-1,2,4-triazol-3-yl)phenyl)-3-(3-(2-isopropyl-5-methylphenyl)-4-oxothiazolidin-2-ylidene)urea]	50 to 100%	50 to 100%	0 to 80%			
COC(C)c1ccc(C)cc1N1C(=O)CS/C1=N\C(=O)Nc1ccc(-c2ncn(-c3ccc(SC(F)(F)F)cc3)n2)cc1Cl (stereo not drawn) [Compound J232, (Z)-1-(2-Chloro-4-(1-(4-((trifluoromethyl)thio)phenyl)-1H-1,2,4-triazol-3-yl)phenyl)-3-(3-(2-(1-methoxyethyl)-5-methylphenyl)-4-oxothiazolidin-2-ylidene)urea]	50 to 100%	50 to 100%	0 to 80%			
Cc1ccc(COCC(F)(F)F)c(N2C(=O)CS/C2=N\C(=O)Nc2ccc(-c3ncn(-c4ccc(OC(F)(F)F)cc4)n3)cc2F)c1 [Compound J123, (Z)-1-(2-fluoro-4-(1-(4-(trifluoromethoxy)phenyl)-1H-1,2,4-triazol-3-yl)phenyl)-3-(3-(5-methyl-2-((2,2,2-trifluoroethoxy)methyl)phenyl)-4-oxothiazolidin-2-ylidene)urea]	50 to 100%	50 to 100%	0 to 80%			
Cc1cc(-c2ncn(-c3cccc(OC(F)(F)F)c3)n2)ccc1NC(=O)/N=C1\SCC(=O)N1c1cc(N(C)C)ccc1C(C)C [Compound J137, (Z)-1-(3-(5-(Dimethylamino)-2-isopropylphenyl)-4-oxothiazolidin-2-ylidene)-3-(2-methyl-4-(1-(3-(trifluoromethoxy)phenyl)-1H-1,2,4-triazol-3-yl)phenyl)urea]	50 to 100%	50 to 100%	0 to 80%			
CC(C)c1cc(F)c(N(C)C)cc1N1C(=O)CS/C1=N\C(=O)Nc1ccc(-c2ncn(-c3ccc(C(F)(F)F)cc3)n2)cc1F [Compound J183, (Z)-1-(3-(5-(Dimethylamino)-4-fluoro-2-isopropylphenyl)-4-oxothiazolidin-2-ylidene)-3-(2-fluoro-4-(1-(4-(trifluoromethyl)phenyl)-1H-1,2,4-triazol-3-yl)phenyl)urea]	50 to 100%	50 to 100%	0 to 80%			
Cc1ccc(COCC(F)(F)F)c(N2C(=O)CS/C2=N\C(=O)Nc2ccc(-c3ncn(-c4ccc(S(=O)(=O)C(F)(F)F)cc4)n3)cc2C)c1 [Compound J365, (Z)-1-(3-(5-Methyl-2-((2,2,2-trifluoroethoxy)methyl)phenyl)-4-oxothiazolidin-2-ylidene)-3-(2-methyl-4-(1-(4-((trifluoromethyl)sulfonyl)phenyl)-1H-1,2,4-triazol-3-yl)phenyl)urea]				50 to 100%	50 to 100%	0 to 80%
COC(c1ccc(C)cc1N1C(=O)CS/C1=N\C(=O)Nc1ccc(-c2ncn(-c3ccc(SC(F)(F)F)cc3)n2)cc1F)C(F)(F)F (stereo not drawn) [Compound J229, (Z)-1-(2-Fluoro-4-(1-(4-((trifluoromethyl)thio)phenyl)-1H-1,2,4-triazol-3-yl)phenyl)-3-(3-(5-methyl-2-(2,2,2-trifluoro-1-methoxyethyl)phenyl)-4-oxothiazolidin-2-ylidene)urea]	50 to 100%	50 to 100%	0 to 80%			
COC(C)c1ccc(C)cc1N1C(=O)CS/C1=N\C(=O)Nc1ccc(-c2ncn(-c3cccc(C(F)(F)F)c3)n2)cc1F (stereo not drawn) [Compound J119, (Z)-1-(2-Fluoro-4-(1-(3-(trifluoromethyl)phenyl)-1H-1,2,4-triazol-3-yl)phenyl)-3-(3-(2-(1-methoxyethyl)-5-methylphenyl)-4-oxothiazolidin-2-ylidene)urea]	50 to 100%	50 to 100%	0 to 80%			
COc1ccc(C(C)C)c(N2C(=O)CS/C2=N\C(=O)Nc2ccc(-c3ncn(-c4cccc(OC(F)(F)F)c4)n3)cc2C)c1 [Compound J136, (Z)-1-(3-(2-Isopropyl-5-methoxyphenyl)-4-oxothiazolidin-2-ylidene)-3-(2-methyl-4-(1-(3-(trifluoromethoxy)phenyl)-1H-1,2,4-triazol-3-yl)phenyl)urea]	50 to 100%	50 to 100%	0 to 80%			
